Results reported in patent US12612412B2, “Antiviral heterocyclic compounds” (Enanta Pharmaceuticals, Inc., priority 2021, dated 2026).
Where two headings read alike, the source gives them in different places.

Tests used:
[1] = system: genotype A, "Long" strain RSV; experiment: RSV-A assay (CPE protection in Hep-2 cells, ATPlite readout); format: cell-based, Human respiratory syncytial virus (HRSV); settings: human respiratory syncytial virus, MOI 0.1, CPE protection
Method in brief: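 Hep-2 cells (8,000/well) were treated with 2-fold serial compound dilutions in duplicate and infected with RSV at MOI 0.1. After 5 days, protection from cytopathic effect was measured as cell viability by ATPlite luminescence, and EC50 values were derived.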

[2] = system: HMPV clinical isolate TN/1501/A1; experiment: HMPV antiviral assay Method-B (clinical isolate TN/1501/A1 in LLC-MK2 cells, ATP-Lite readout); format: cell-based, Human metapneumovirus (HMPV); settings: human metapneumovirus, LLC-MK2, 144 h, hMPV WT1501 (clinical isolate TN/1501/A1), 6 days
Method in brief: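 EC50 derived by four-parameter logistic fit of percent cell health, measured by ATP-Lite luminescence and normalised to virus-only and uninfected-cell controls. Compounds run in duplicate from 10 μM top, 3-fold, 10 points. Infection: LLC-MK2 cells, MOI 0.014, 2 μg/mL final TPCK-trypsin, serum-free, 6 days at 37° C.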

[3] = genotype A “Long” strain RSV, read-out: Human RSV-A (“Long”)
[4] = RSV-A Long strain, read-out: Human RSV-A (“Long”) EC50

| SMILES | EC50 [1, 3] [nM] | EC50 [2] [nM] | EC50 [1, 4] [nM] |
| --- | --- | --- | --- |
| Cc1cnc2c(OC(F)(F)F)cc(C(=O)NC[C@](O)(c3cc4c(c(-c5ccc(F)c(Cl)c5)n3)OC[C@]4(C)C(N)=O)C3CC3)cc2c1 [Example 503] | < 200 | < 500 | – |
| Cc1nc2c(OC3CC3)cc(C(=O)NC[C@](O)(c3cc4c(c(-c5ccc(F)c(Cl)c5)n3)OC[C@]4(C)C(N)=O)C(F)(F)F)cc2cc1Cl [Example 886] | – | < 500 | < 200 |
| C[C@]1(C(N)=O)COc2c1cc([C@@](O)(CNC(=O)c1cc(Cl)c3nn(C4CC4)cc3c1)C(F)(F)F)nc2-c1cc(Cl)c(F)cc1F [Example 619] | < 200 | < 500 | – |
| COc1cc(C(=O)NC[C@](O)(c2cc3c(c(-c4ccc(F)c(Cl)c4F)n2)OC[C@]3(C)C(N)=O)C2CC2)cc2cn(C3(F)CC3)nc12 [Example 555] | < 200 | < 500 | – |
| COc1cc(C(=O)NC[C@](O)(c2cc3c(c(-c4cc(F)c(F)c(Cl)c4)n2)OC[C@]3(C)C(N)=O)C2CC2)cc2cc(Br)cnc12 [Example 789] | < 200 | < 500 | – |
| Cc1cnc2c(OCC(F)F)cc(C(=O)NC[C@](O)(c3cc4c(c(-c5ccc6c(c5)OC(F)(F)O6)n3)OC[C@]4(C)C(N)=O)C3CC3)cc2c1 [Example 541] | < 200 | < 500 | – |
| COc1cc(C(=O)NC[C@](O)(c2cc3c(c(-c4cc(Br)c(F)cc4F)n2)OC[C@]3(C)C(N)=O)C2CC2)cc2cn(C3CC3)nc12 [Example 1088] | – | < 500 | < 200 |
| COc1cc(C(=O)NC[C@](O)(c2cc3c(c(-c4cc(Cl)c(F)cc4F)n2)OC[C@]3(C)C(N)=O)C2CC2)cc2cc(Br)c(C)nc12 [Example 1154] | – | < 500 | < 200 |
| COc1cc(C(=O)NC[C@](O)(c2cc3c(c(-c4csc5ccc(F)cc45)n2)OC[C@]3(C)C(N)=O)C(F)(F)F)cc2cn(C3CC3)nc12 [Example 944] | – | > 500 | < 200 |
| C[C@]1(C(N)=O)COc2c1cc([C@@](O)(CNC(=O)c1cc(OC3CC3)n3nc(C4CC4)cc3c1)C(F)(F)F)nc2-c1ccc2c(c1)OC(F)(F)O2 [Example 504] | < 200 | < 500 | – |
| COc1cc(C(=O)NC[C@](O)(c2cc3c(c(-c4ccc(F)cc4)n2)OC[C@]3(C)C(N)=O)C2CCC2)cc2cn(C3(F)CC3)nc12 [Example 726] | < 200 | < 500 | – |
| COc1cc(C(=O)NC[C@](O)(c2cc3c(c(-c4ccc5[nH]ccc5c4)n2)OC[C@]3(C)C(N)=O)C(F)(F)F)cc2cn(C3CC3)nc12 [Example 969] | – | > 500 | > 200 |
| COc1cc(C(=O)NC[C@](O)(c2cc3c(c(-c4ccc(F)c(Cl)c4)n2)OC[C@]3(C)C(N)=O)C2CC2)cc2sc(C)nc12 [Example 722] | < 200 | < 500 | – |
| Cc1cnc2c(OC(F)F)cc(C(=O)NC[C@](O)(c3cc4c(c(-c5ccc(F)cc5)n3)OC[C@]4(C)C(N)=O)C(F)(F)F)cc2c1 [Example 493] | < 200 | < 500 | – |
| Cc1cnc2c(OC(F)F)cc(C(=O)NC[C@](O)(c3cc4c(c(-c5ccc(F)c(C(F)(F)F)c5)n3)OC[C@]4(C)C(N)=O)C3(F)CC3)cc2c1 [Example 750] | < 200 | < 500 | – |
| Cc1cnc2c(OC(F)F)cc(C(=O)NC[C@](O)(c3cc4c(c(-c5ccc(F)c(Cl)c5)n3)OC[C@]4(C(N)=O)C(F)F)C(F)(F)F)cc2c1 [Example 1008] | – | > 500 | > 200 |
| C[C@]1(C(N)=O)COc2c1cc([C@@](O)(CNC(=O)c1cc(OC3CC3)c3nn(C(F)F)cc3c1)C(F)(F)F)nc2-c1csc2c(F)cccc12 [Example 606] | < 200 | < 500 | – |
| COc1cc(C(=O)NC[C@](O)(c2cc3c(c(-c4ccc(C(F)(F)F)c(Cl)c4)n2)OC[C@]3(C)C(N)=O)C(F)(F)F)cc2cn(C3CC3)nc12 [Example 579] | < 200 | > 500 | – |
| C[C@@H](O)COc1ccc(C(=O)NC[C@](O)(c2cc3c(c(-c4ccc5c(c4)OC(F)(F)O5)n2)OC[C@]3(C)C(N)=O)C(F)(F)F)cc1OC1CC1 [Example 818] | < 200 | < 500 | – |
| Cc1nc2c(Cl)cc(C(=O)NC[C@](O)(c3cc4c(c(-c5ccc(F)cc5)n3)OC[C@]4(C)C(N)=O)C(F)(F)F)cc2cc1Cl [Example 883] | – | > 500 | < 200 |
| C[C@]1(C(N)=O)COc2c1cc([C@@](O)(CNC(=O)c1ccn3nc(C4CC4)cc3c1)C1CC1)nc2-c1ccc2c(c1)OC(F)(F)O2 [Example 824] | < 200 | < 500 | – |
| COc1cc(C(=O)NC[C@](O)(c2cc3c(c(-c4ccc(F)c(Cl)c4)n2)OC[C@]3(C)C(N)=O)C2CC2)ccc1OC1CC1 [Example 811] | < 200 | < 500 | – |

| SMILES | EC50 [1, 3] [nM] | EC50 [2] [nM] | EC50 [1, 4] [nM] |
| --- | --- | --- | --- |
| Cc1nc2c(OC3CC3)cc(C(=O)NC[C@](O)(c3cc4c(c(-c5ccc(F)c(F)c5Cl)n3)OC[C@]4(C)C(N)=O)C(F)(F)F)cc2cc1Cl [Example 777] | < 200 | < 500 | – |
| COc1cc(C(=O)NC[C@](O)(c2cc3c(c(-c4c(F)cc(Cl)cc4F)n2)OC[C@]3(C)C(N)=O)C2CC2)cc2cn(C3CC3)nc12 [Example 1155] | – | < 500 | < 200 |
| COc1cc(C(=O)NC[C@](O)(c2cc3c(c(-c4cc(F)c(F)cc4F)n2)OC[C@]3(C)C(N)=O)C(F)(F)F)cc2cn(C3CC3)nc12 [Example 1135] | – | < 500 | < 200 |
| COc1cc(C(=O)NC[C@](O)(c2cc3c(c(-c4csc5c(F)cccc45)n2)OC[C@]3(C)C(N)=O)C(F)(F)F)cc2cn(C3(F)CC3)nc12 [Example 599] | < 200 | < 500 | – |
| COc1cc(C(=O)NC[C@](O)(c2cc3c(c(-c4cc(Br)c(F)cc4F)n2)OC[C@]3(C)C(N)=O)C2CC2)cc2cc(Cl)c(C)nc12 [Example 1094] | – | < 500 | < 200 |
| COc1cc(C(=O)NC[C@](O)(c2cc3c(c(-c4csc(C(F)(F)F)c4)n2)OC[C@]3(C)C(N)=O)C(F)(F)F)cc2cn(C3CC3)nc12 [Example 946] | – | < 500 | < 200 |
| COc1cc(C(=O)NC[C@](O)(c2cc3c(c(-c4ccc(F)c(C(F)(F)F)c4)n2)OC[C@]3(C)C(N)=O)C2CC2)cc2cn(C3(Cl)CC3)nc12 [Example 845] | – | < 500 | < 200 |
| COc1cc(C(=O)NC[C@](O)(c2cc3c(c(-c4cc(Cl)c(F)cc4F)n2)OC[C@]3(C)C(N)=O)C2(F)CC2)cc2cc(Br)cnc12 [Example 767] | < 200 | < 500 | – |
| COc1cc(C(=O)NC[C@](O)(c2cc3c(c(-c4c(F)cc(F)cc4Cl)n2)OC[C@]3(C)C(N)=O)C(F)(F)F)cc2cn(C3CC3)nc12 [Example 1235] | – | < 500 | < 200 |
| C[C@]1(C(N)=O)COc2c1cc([C@@](O)(CNC(=O)c1ccnc3cc[nH]c13)C(F)(F)F)nc2-c1ccc(F)cc1 [Example 488] | < 200 | > 500 | – |
| COc1cc(C(=O)NC[C@](O)(c2cc3c(c(-c4cccc(F)c4Cl)n2)OC[C@]3(C)C(N)=O)C2CC2)cc2cc(Br)cnc12 [Example 1124] | – | < 500 | < 200 |
| COc1cc(C(=O)NC[C@](O)(c2cc3c(c(-c4cc(Cl)c(F)cc4F)n2)OC[C@]3(C)C(N)=O)C2CC2)cc2cn(C3(F)CC3)nc12 [Example 663] | < 200 | < 500 | – |
| COc1cc(-c2nc([C@](O)(CNC(=O)c3cc(OC)c4nn(C5CC5)cc4c3)C(F)(F)F)cc3c2OC[C@]3(C)C(N)=O)ccc1F [Example 913] | – | > 500 | > 200 |
| C[C@]1(C(N)=O)COc2c1cc([C@@](O)(CNC(=O)c1cc(Cl)c3nn(C(F)F)cc3c1)C1CC1)nc2-c1ccc2c(c1)OC(F)(F)O2 [Example 856] | – | < 500 | < 200 |
| C[C@]1(C(N)=O)COc2c1cc([C@@](O)(CNC(=O)c1cc(OC3CC3)c3nc(Cl)ccc3c1)C(F)(F)F)nc2-c1ccc(F)cc1 [Example 1192] | – | > 500 | < 200 |
| COc1cc(C(=O)NC[C@](O)(c2cc3c(c(-c4ccc5c(c4)OC(F)(F)O5)n2)OC[C@]3(C)C(N)=O)C2CC2)cc2cn(C3(Cl)CC3)nc12 [Example 838] | – | < 500 | < 200 |
| COc1cc(C(=O)NC[C@](O)(c2cc3c(c(-c4ccc5c(c4)CCC5)n2)OC[C@]3(C)C(N)=O)C(F)(F)F)cc2cn(C3CC3)nc12 [Example 984] | – | > 500 | > 200 |
| COc1cc(C(=O)NC[C@](O)(c2nc(-c3ccc(F)cc3)c3c(c2F)[C@](C)(C(N)=O)CO3)C(F)(F)F)cc2cc(Cl)c(C)nc12 [Example 854] | – | > 500 | > 200 |
| C[C@]1(C(N)=O)COc2c1cc([C@@](O)(CNC(=O)c1cc(OC3CC3)c3nn(C(F)F)cc3c1)C1CC1)nc2-c1ccc2c(c1)OC(F)(F)O2 [Example 847] | – | < 500 | < 200 |
| COc1cc(C(=O)NC[C@](O)(c2cc3c(c(-c4cc(Cl)ccc4F)n2)OC[C@]3(C)C(N)=O)C2CC2)cc2cn(C3(F)CC3)nc12 [Example 839] | – | < 500 | < 200 |
| COc1cc(C(=O)NC[C@](O)(c2cc3c(c(-c4cccc(OC(F)(F)F)c4)n2)OC[C@]3(C)C(N)=O)C(F)(F)F)cc2cn(C3CC3)nc12 [Example 978] | – | > 500 | < 200 |
| COc1cc(C(=O)NC[C@](O)(c2cc3c(c(-c4ccccc4-c4ccccc4)n2)OC[C@]3(C)C(N)=O)C(F)(F)F)cc2cn(C3CC3)nc12 [Example 1250] | – | > 500 | < 200 |
